In ChEMBL document CHEMBL1938244, “Synthesis, anticancer activity and apoptosis inducing ability of bisindole linked pyrrolo[2,1-c][1,4]benzodiazepine conjugates” (2012):
Activity calls are given as the source filed them. No cut-off for these calls is given here.

Columns and labels:
[1] = system: KB; assay: Anticancer activity against human KB cells by SRB method; format: functional
[2] = system: MCF7; assay: Induction of cell cycle arrest in human MCF7 cells assessed as accumulation of cells in G0 phase at 8 uM after 24 hrs by flow cytometry (reference value: 3.22%); format: functional
[3] = system: MCF7; assay: Induction of cell cycle arrest in human MCF7 cells assessed as accumulation of cells in G1 phase at 8 uM after 24 hrs by flow cytometry (reference value: 65.58%); format: functional
[4] = system: MCF7; assay: Induction of cell cycle arrest in human MCF7 cells assessed as accumulation of cells in G2/M phase at 2 uM after 24 hrs by flow cytometry relative to untreated control; format: functional
[5] = system: MCF7; assay: Induction of apoptosis in human MCF7 cells assessed as PARP-cleavage at 8 uM after 24 hrs by Western blot analysis; format: functional, cell-based
[6] = system: MCF7; assay: Induction of cell cycle arrest in human MCF7 cells assessed as accumulation of cells in G0 phase at 4 uM after 24 hrs by flow cytometry (reference value: 3.22%); format: functional
[7] = system: MCF7; assay: Inhibition of HDAC8 protein expression in human MCF7 cells at 2 uM after 24 hrs by Western blotting; format: functional, cell-based
[8] = system: MCF7; assay: Inhibition of HDAC1 protein expression in human MCF7 cells at 2 uM after 24 hrs by Western blotting; format: functional, cell-based
[9] = system: MCF7; assay: Induction of cell cycle arrest in human MCF7 cells assessed as accumulation of cells in G2/M phase at 2 uM after 24 hrs by flow cytometry (reference value: 36.23%); format: functional
[10] = system: MCF7; assay: Induction of cell cycle arrest in human MCF7 cells assessed as accumulation of cells in G1 phase at 4 uM after 24 hrs by flow cytometry relative to untreated control; format: functional
[11] = system: MCF7; assay: Induction of cell cycle arrest in human MCF7 cells assessed as accumulation of cells in G1 phase at 2 uM after 24 hrs by flow cytometry (reference value: 46%); format: functional
[12] = system: MCF7; assay: Increase in p21 protein level in human MCF7 cells at 2 uM after 24 hrs by Western blotting; format: functional, cell-based
[13] = system: MCF7; assay: Induction of apoptosis in human MCF7 cells assessed as caspase-7 activation at 8 uM after 24 hrs by Western blot analysis; format: functional, cell-based
[14] = system: MCF7; assay: Induction of cell cycle arrest in human MCF7 cells assessed as accumulation of cells in G0 phase at 2 uM after 24 hrs by flow cytometry relative to untreated control; format: functional
[15] = system: MCF7; assay: Induction of cell cycle arrest in human MCF7 cells assessed as accumulation of cells in S phase at 2 uM after 24 hrs by flow cytometry relative to untreated control; format: functional
[16] = system: MCF7; assay: Induction of cell cycle arrest in human MCF7 cells assessed as accumulation of cells in G2/M phase at 4 uM after 24 hrs by flow cytometry relative to untreated control; format: functional
[17] = system: MCF7; assay: Inhibition of HDAC3 protein expression in human MCF7 cells at 2 uM after 24 hrs by Western blotting; format: functional, cell-based
[18] = system: MCF7; assay: Induction of cell cycle arrest in human MCF7 cells assessed as accumulation of cells in G1 phase at 4 uM after 24 hrs by flow cytometry (reference value: 65.58%); format: functional
[19] = system: MCF7; assay: Induction of cell cycle arrest in human MCF7 cells assessed as accumulation of cells in G2/M phase at 8 uM after 24 hrs by flow cytometry relative to untreated control; format: functional
[20] = system: MCF7; assay: Induction of cell cycle arrest in human MCF7 cells assessed as accumulation of cells in G0 phase at 4 uM after 24 hrs by flow cytometry relative to untreated control; format: functional
[21] = target: Tubulin (Homo sapiens) (UniProt P68371+Q9H4B7+P0DPH7+P68366+Q13509+Q71U36+P04350+Q3ZCM7+P07437+P68363+Q9BQE3+Q6PEY2+Q13885+Q9BVA1+Q9BUF5); assay: Inhibition of tubulin polymerization in human MCF7 cells at 2 uM after 24 hrs by FITC-conjugated immunostaining assay; format: cell-based
[22] = system: MCF7; assay: Induction of cell cycle arrest in human MCF7 cells assessed as accumulation of cells in S phase at 8 uM after 24 hrs by flow cytometry relative to untreated control; format: functional
[23] = system: MCF7; assay: Induction of cell cycle arrest in human MCF7 cells assessed as accumulation of cells in G0 phase at 2 uM after 24 hrs by flow cytometry (reference value: 2.9%); format: functional
[24] = system: MCF7; assay: Induction of cell cycle arrest in human MCF7 cells assessed as accumulation of cells in S phase at 4 uM after 24 hrs by flow cytometry relative to untreated control; format: functional
[25] = system: MCF7; assay: Induction of cell cycle arrest in human MCF7 cells assessed as accumulation of cells in S phase at 2 uM after 24 hrs by flow cytometry (reference value: 14.87%); format: functional
[26] = system: MCF7; assay: Induction of cell cycle arrest in human MCF7 cells assessed as accumulation of cells in S phase at 8 uM after 24 hrs by flow cytometry (reference value: 5.55%); format: functional
[27] = system: MCF7; assay: Induction of cell cycle arrest in human MCF7 cells assessed as accumulation of cells in G2/M phase at 8 uM after 24 hrs by flow cytometry (reference value: 25.65%); format: functional
[28] = system: SiHa; assay: Anticancer activity against human SiHa cells by SRB method; format: functional
[29] = system: MCF7; assay: Induction of cell cycle arrest in human MCF7 cells assessed as accumulation of cells in G1 phase at 8 uM after 24 hrs by flow cytometry relative to untreated control; format: functional
[30] = system: MCF7; assay: Anticancer activity against human MCF7 cells by SRB method; format: functional
[31] = system: MCF7; assay: Inhibition of HDAC2 protein expression in human MCF7 cells at 2 uM after 24 hrs by Western blotting; format: functional, cell-based
[32] = system: MCF7; assay: Induction of cell cycle arrest in human MCF7 cells assessed as accumulation of cells in G0 phase at 8 uM after 24 hrs by flow cytometry relative to untreated control; format: functional
[33] = system: MCF7; assay: Induction of cell cycle arrest in human MCF7 cells assessed as accumulation of cells in G1 phase at 2 uM after 24 hrs by flow cytometry relative to untreated control; format: functional
[34] = system: MCF7; assay: Anticancer activity against human MCF7 cells assessed as cell death at 2 uM after 24 hrs by MTT assay; format: functional
[35] = system: COLO 205; assay: Anticancer activity against human COLO205 cells by SRB method; format: functional
[36] = system: MCF7; assay: Induction of cell cycle arrest in human MCF7 cells assessed as accumulation of cells in S phase at 4 uM after 24 hrs by flow cytometry (reference value: 5.55%); format: functional
[37] = system: A2780; assay: Anticancer activity against human A2780 cells by SRB method; format: functional
[38] = system: MCF7; assay: Induction of cell cycle arrest in human MCF7 cells assessed as accumulation of cells in G2/M phase at 4 uM after 24 hrs by flow cytometry (reference value: 25.65%); format: functional
[39] = system: ZR-75-1; assay: Anticancer activity against human ZR-75-1 cells by SRB method; format: functional
[40] = system: A549; assay: Anticancer activity against human A549 cells by SRB method; format: functional

Row | SMILES | GI50 [1] [nM] | Activity [2] [%] | Activity [3] [%] | Activity [4] [%] | Activity [5] | Activity [6] [%] | inhibition [7] | inhibition [8] | Activity [9] [%] | Activity [10] [%] | Activity [11] [%] | Activity [12] | Activity [13] | Activity [14] [%] | Activity [15] [%] | Activity [16] [%] | inhibition [17] | Activity [18] [%] | Activity [19] [%] | Activity [20] [%] | further results
1 | COc1cc2c(cc1OCCCCCOc1cccc(C(c3c[nH]c4ccccc34)c3c[nH]c4ccccc34)c1)N=C[C@@H]1CCCN1C2=O | 2300 | 24.25 | 61.55 | 42.67 | Active | 10.4 | Active | Active | 42.61 | 70.29 | 39.36 | Active | Active | 2.98 | 15.42 | 10.74 | Active | 71.85 | 8.99 | 10.7 | inhibition [21]: Active; Activity [22]: 5.26%; Activity [23]: 3.47%; Activity [24]: 8.26%; Activity [25]: 14.56%; Activity [26]: 4.82%; Activity [27]: 9.38%; GI50 [28]: 2200 nM; Activity [29]: 60.92%; GI50 [30]: 190 nM; inhibition [31]: Active; Activity [32]: 24.81%; Activity [33]: 38.86%; Activity [34]: 50%; GI50 [35]: 160 nM; Activity [36]: 8.67%; GI50 [37]: 180 nM; Activity [38]: 9.08%
2 | COc1cc2c(cc1OCCCCCOc1ccc(C(c3c[nH]c4ccccc34)c3c[nH]c4ccccc34)cc1)N=C[C@@H]1CCCN1C2=O | 130 | 51.96 | 44.26 | 46.67 | Active | 16.45 | Active | Active | 45.19 | 68.33 | 41.51 | Active | Active | 3.57 | 9.08 | 8.6 | Active | 68.23 | 1.41 | 16.11 | GI50 [39]: 120 nM; inhibition [21]: Active; Activity [22]: 2.32%; Activity [23]: 3.96%; Activity [24]: 6.95%; Activity [25]: 9.34%; Activity [26]: 2.04%; Activity [27]: 1.75%; GI50 [28]: 180 nM; Activity [29]: 46.11%; GI50 [30]: 140 nM; inhibition [31]: Active; Activity [32]: 50.15%; Activity [33]: 40.67%; Activity [34]: 50%; GI50 [35]: 26100 nM; Activity [36]: 6.97%; GI50 [40]: 2400 nM; GI50 [37]: 110 nM; Activity [38]: 8.35%
